In PMC10059125, “The Pharmaceutical Formulation Plays a Pivotal Role in Hydroxytyrosol Pharmacokinetics” (Pharmaceutics, 2023):
Like-named read-outs stand apart in the source and are kept apart here. Blank lines part the entries; values can stand above or below the compound they belong to.

Assays:
[1] = Urinary excretion of DOPET and metabolites in healthy volunteers after oral enteric-coated capsules; format: in vivo, human; conditions: for cumulative metabolites distribution in urine, mean relative area percentage with respect to all identified and unidentified compounds: 24 h urine, oral 15 mg (97.3 µmole) DOPET; for mean peak in urine: approximately 6 h after oral 15 mg (97.3 µmole) DOPET, n = 20
Description: (§1) The study protocol, approved by the local ethics committee (Register Protocol No. 146 17/05/2018), was conducted on 20 healthy Caucasian volunteers, aged 25–60 years with BMI ranging from 19 and 25 kg/m^2, enrolled at the University hospital facility of the Clinical Research Unit of the Department of Biomedicine and Prevention, University of Tor Vergata (Rome, Italy). Two enteric-coated capsules, each containing 7.5 mg of DOPET, were administered orally. All subjects fulfilled the following eligibility criteria: non-smokers, non-alcoholics, healthy diet, and no drugs during the experimental procedure. The administration was preceded by a 4-day washout with polyphenols and an alcoholic-free diet to avoid any interference, and by a 10-h fasting period. The study was conducted in compliance with the Declaration of Helsinki, and the selected subjects agreed to the procedure by reviewing and signing the relevant, informed consensus.
Urine samples were collected at baseline (T0) and, after the intervention, at the following mean times: 3.45, 4.18, 5.14, 6.16, 8.19, 12, and 24 h in sterile, dark polystyrene tubes (100 mL) with screw caps with 10% L-ascorbic acid as a chemical preservative. Both plasma and urine samples were immediately shipped in dry ice to the Department of Chemical, Biological, Pharmaceutical and Environmental Sciences, University of Messina (Italy) for chemical analyses, stored at −80 °C and processed within 48 h.
(§2) Plasma and urine samples were processed, before and after hydrolysis, according to Alemán-Jiménez et al., with some modifications. Briefly, plasma and urine samples were thawed at room temperature and centrifuged (10,000× g for 5 min). Sample supernatants (100 and 400 μL, respectively) were hydrolyzed by incubation with 300 UI (plasma) and 1500 UI (urine) of β-glucuronidase from Helix pomatia for 2 h at 37 °C, clarified with 200 μL of MeOH/HCl (0.2 M) and centrifuged at 10,000× g for 5 min. An SPE clean-up step, by using Strata X-AW cartridges (Phenomenex, Torrance, CA, USA) mounted on VacElut Cartridge Manifolds (Agilent Technologies, Inc., Santa Clara, CA, USA), was carried out. Cartridges were conditioned and equilibrated with 2 mL of MeOH/HCOOH (98:2, v/v) and 2 mL of water/HCOOH (98:2, v/v), respectively. After sample loading, SPE cartridges were washed with water/HCOOH (98:2, v/v). Analytes were eluted with 1 mL of MeOH/HCOOH (98:2, v/v) and dried by a gentle stream of nitrogen at room temperature. Extracts were recovered with 200 μL of the mobile phase used for the LC-DAD-ESI-MS/MS analyses (see Section 2.4). Quality control samples were prepared by spiking DOPET and metabolites (DOPAC, HVA, and MOPET) in baseline control plasma and urine samples at two different concentrations (1.2 ng/mL and 5.3 ng/mL) correspondent to the limit of quantification (LOQ) in plasma and urine samples, respectively. Both precision (CV < 10%) and accuracy (≥90%) recorded in three replicates were acceptable according to ICH and FDA guidelines.
(§3) Plasma and urinary DOPET and metabolites were analyzed by LC-DAD-ESI-MS/MS (Agilent Technologies, Inc., Santa Clara, CA, USA). Chromatographic analysis was carried out by a Luna Omega PS C18 column (150 mm × 2.1 mm, 5 µm; Phenomenex, Torrance, CA, USA) at 25 °C by using a mobile phase consisting of 0.1% HCOOH (Solvent A) and methanol (Solvent B) according to the following elution program: 0–18 min, 5% B; 18–21 min, 95% B; 21–30 min, 5% B; 30–35 min, 5%. The injection volume was 10 µL, and the flow rate was 0.4 mL/min. The UV–Vis spectra were recorded, ranging from 190 to 400 nm, and chromatograms were acquired at 280 nm. […]

[2] = parameters: method as in PMID 32524230; conditions: 5 mg DOPET conveyed in EVOO, 20 volunteers; cited from earlier work
[3] = parameters: method as in PMID 12765992; conditions: 25 mL of EVOO, 6 healthy volunteers; cited from earlier work
[4] = parameters: method as in PMID 28452954; conditions: in vitro; cited from earlier work
[5] = Plasma pharmacokinetics of free DOPET in healthy volunteers after oral enteric-coated capsules (DOPET in EVOO), non-compartmental analysis; format: in vivo, human
Description: as §1
Blood samples were collected into 10 mL test tubes containing EDTA from a subcutaneous vein using a permanent catheter inserted into the forearm at baseline (T0) and 45, 90, 123, 150, 184, 247, 386, and 440 min. Samples were centrifuged at 1700× g for 10 min at 4 °C and the obtained plasma was aliquoted into test tubes containing citric acid (2 M, 10% v/v).
as §2
as §3, with “nm. The experimental parameters of the mass spectrometer (ion trap, model 6320, Agilent Technologies, Santa Clara, CA, USA) equipped with an electrospray ionization interface operating in the negative (ESI−) and positive (ESI+) ionization mode were set as follows: 3.5 kV capillary voltage, 40 psi nebulizer (N2) pressure, 350 °C drying gas temperature, 9 L/min drying gas flow, and 40 V skimmer voltage. The acquisition was carried out in full-scan mode (90–1000 m/z).” for “nm.”

[6] = parameters: method as in PMID 17870451; conditions: 100 g of olives containing 76.73 mg of DOPET, 7 healthy men; cited from earlier work
[7] = parameters: method as in doi:10.1016/j.foodchem.2011.07.101; conditions: after chronic or acute consumption of olive leaf supplements, 55 healthy young adults; cited from earlier work
[8] = parameters: method as in PMID 23766098; conditions: cited from earlier work; for Cmax: olive leaf extract
[9] = parameters: method as in doi:10.1016/j.jff.2016.02.046; conditions: cited from earlier work
[10] = parameters: method as in PMID 20045462; conditions: single oral dose 2.5 mg/kg b.w., 10 subjects; cited from earlier work
[11] = parameters: method as in PMID 10692578; conditions: 24 h; enriched olive oils, 6 healthy male volunteers; cited from earlier work
[12] = human, mean, n = 20, free DOPET in plasma, oral 15 mg DOPET (2 cps)

cumulative metabolites distribution in urine, mean relative area percentage with respect to all identified and unidentified compounds [1]: 13.48%
mean peak in urine [1]: 9.93 µmol
SMILES: O=C(O)Cc1ccc(O)c(O)c1 [DOPAC, 3,4-dihydroxyphenylacetic acid]

bioavailability compared with the literature ([5]; enteric-coated capsule, DOPET in EVOO, versus previous results at the same dose administered): about 2.5 times
Cmax ([5]; human, plasma, po, 15 mg, mean, n = 20, free DOPET in plasma, oral 15 mg DOPET (2 cps), read-out: Cmax): 5.5 ng/mL
Tmax [5, 12]: 2.05 h
half-life [5, 12]: 2.51 h
AUCextrap_pred ([5]; mean, n = 20, fraction of total AUC due to extrapolated AUC, oral 15 mg DOPET): 18.23%
Cmax ([5]; mean, n = 20, free DOPET in plasma, oral 15 mg DOPET (2 cps)): 5.48 ng/mL
cumulative metabolites distribution in urine, mean relative area percentage with respect to all identified and unidentified compounds [1]: 8.49%
mean peak in urine [1]: 4.67 µmol
SMILES: OCCc1ccc(O)c(O)c1 [DOPET, 3,4-dihydroxyphenyl ethanol]
Cmax [2]: 3.79 ng/mL
time to Cmax [2]: 30 min
Cmax [3]: 25.83 ng/mL
Tmax [3]: 0.967 h
genotoxicity or mutagenicity [4]: does not exhibit any genotoxicity or mutagenicity
plasma concentration at Cmax [6]: 3150 ng/mL
time to Cmax [6]: 1 h
detection in urine samples [7]: neither oleuropein nor DOPET was detected
Cmax ([8]; capsule matrix): 56 ng/mL
Cmax ([8]; liquid matrix): 59 ng/mL
decrease of Tmax ([8]; passing from encapsulated to the liquid formulation): about 30 min
urine levels of DOPET and its metabolites, share of the DOPET administered ([9]; 5 mg of DOPET/day for one week): 21%
urine levels of DOPET and its metabolites, share of the DOPET administered ([9]; 25 mg of DOPET/day for one week): 28%
forms of DOPET excreted in urine ([9]; 5 or 25 mg of DOPET/day for one week): 0–0.02%
Cmax [10]: 1110 nM
time of maximum plasma concentration [10]: 13 min
urine excretion with respect to the dose administered [11]: 29–40%

cumulative metabolites distribution in urine, mean relative area percentage with respect to all identified and unidentified compounds [1]: 0.94%
mean peak in urine [1]: 0.44 µmol
SMILES: COc1cc(CCO)ccc1O [MOPET, 4-hydroxy-3-methoxyphenethanol]

Further lines, the compound ahead of its results:

SMILES: COc1cc(CC(=O)O)ccc1O [HVA, homovanillic acid]
mean peak in urine [1]: 18.39 µmol

SMILES: C/C=C1/[C@H](O[C@@H]2O[C@H](CO)[C@@H](O)[C@H](O)[C@H]2O)OC=C(C(=O)OC)[C@H]1CC(=O)OCCc1ccc(O)c(O)c1 [oleuropein]
detection in urine samples [7]: neither oleuropein nor DOPET was detected

SMILES: OCCc1ccc(O)cc1 [tyrosol]
urine excretion with respect to the dose administered [11]: 21–24%
